Measured values taken from patent publication US9499550B2 (BRISTOL-MYERS SQUIBB COMPANY, priority 2012, dated 2016).
Where two headings read alike, the source gives them in different places.

How the values were obtained:
[1] = system: HCV genotype 1a (H77 strain) replicon in HUH-7 cells; assay: HCV replicon luciferase reporter assay, genotype 1a; format: cell-based; conditions: Hepatitis C virus, Huh-7, 72 h, 3 days incubation, read-out: LE_1a (EC50, range)
Procedure, shortened: (§1)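 Replicon inhibition for both genotypes was measured as Renilla luciferase signal (EnduRen, 7.5 μM final, 2 h) after 3-day, 37° C exposure of replicon-bearing HUH-7 cells in 4% FCS DMEM, 0.5% DMSO. The 1b construct carries S1179I; the 1a H77 construct carries P1496L and S2204I. Twenty-point, 3-fold dilutions were fitted four-parametrically for EC50, and CC50 was taken from multiplexed Cell Titer-Blue.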

[2] = system: HCV genotype 1b (Con1) replicon in HUH-7 cells; assay: HCV replicon luciferase reporter assay, genotype 1b; format: cell-based; conditions: Hepatitis C virus, Huh-7, 72 h, 3 days incubation, read-out: LE_1b (EC50, range)
Procedure, shortened: as §1

[3] = HCV genotype 1a replicon luciferase
[4] = HCV genotype 1b replicon luciferase
[5] = HCV genotype 1a replicon luciferase assay, range class
[6] = HCV genotype 1b replicon luciferase assay, range class

SMILES | EC50 [1, 3] | EC50 [2, 4] | further results
COc1cnc(O[C@@H]2C[C@H]3C(=O)N[C@]4(C(=O)NS(=O)(=O)C5(CF)CC5)C[C@H]4CCCC[C@@H](C)C[C@@H](C)[C@H](NC(=O)OC(C)(C)C(C)(F)F)C(=O)N3C2)c2ccccc12 [Compound 5119, 3,3-difluoro-2-methylbutan-2-yl ((2R,6S,7R,9R,13 aR,14aR,16aS)-14a-(((1-(fluoromethyl)cyclopropyl)sulfonyl)carbamoyl)-2-((4-methoxyisoquinolin-1-yl)oxy)-7,9-dimethyl-5,16-dioxooctadecahydrocyclopropa[e]pyrrolo[1,2-a][1,4]diazacyclopentadecin-6-yl)carbamate] | < 5.46 nM | < 5.46 nM | 
CCN(C)c1cc2cc(OC)ccc2c(O[C@@H]2C[C@H]3C(=O)N[C@]4(C(=O)NS(=O)(=O)C5(CF)CC5)C[C@H]4/C=C\CC[C@H](C)C[C@@H](C)[C@H](NC(=O)OC(C)(C)C)C(=O)N3C2)n1 [Compound 1134, tert-butyl ((2R,6S,7R,9S,13aS,14aR,16aS,Z)-2-((3-(ethyl(methyl)amino)-6-methoxyisoquinolin-1-yl)oxy)-14a-(((1-(fluoromethyl)cyclopropyl)sulfonyl)carbamoyl)-7,9-dimethyl-5,16-dioxo-1,2,3,5,6,7,8,9,10,11,13a,14,14a,15,16,16a-hexadecahydrocyclopropa[e]pyrrolo[1,2-a][1,4]diazacyclopentadecin-6-yl)carbamate] |  |  | EC50 [1, 5]: > 87.4 nM; EC50 [2, 6]: > 87.4 nM
CC[C@@H]1C[C@H](C)CC/C=C\[C@@H]2C[C@@]2(C(=O)NS(=O)(=O)C2(C)CC2)NC(=O)[C@@H]2C[C@@H](Oc3nc(-c4ccc(OC(C)C)cn4)cc4cc(OC)ccc34)CN2C(=O)[C@H]1NC(=O)OC(C)(C)C(F)(F)F [Compound 5489, 1,1,1-trifluoro-2-methylpropan-2-yl((2R,6S,7R,9R,13aS,14aR,16aS,Z)-7-ethyl-2-((3-(5-isopropoxypyridin-2-yl)-6-methoxyisoquinolin-1-yl)oxy)-9-methyl-14a-(((1-methylcyclopropyl)sulfonyl)carbamoyl)-5,16-dioxo-1,2,3,5,6,7,8,9,10,11,13a,14,14a,15,16,16a-hexadecahydrocyclopropa[e]pyrrolo[1,2-a][1,4]diazacyclopentadecin-6-yl)carbamate] | 1.01 to 5 nM | 1.01 to 5 nM | 
COc1ccc2c(O[C@@H]3C[C@H]4C(=O)N[C@]5(C(=O)NS(=O)(=O)C6(C)CC6)C[C@H]5/C=C\CC[C@@H](C)C[C@@H](C)[C@H](NC(=O)OC(C)(C)C)C(=O)N4C3)ncc(N3C[C@@H](C)O[C@@H](C)C3)c2c1 [Compound 4131, tert-butyl (2R,6S,7R,9R,13aS,14aR,16aS,Z)-2-(4-((2S,6R)-2,6-dimethylmorpholino)-6-methoxyisoquinolin-1-yloxy)-7,9-dimethyl-14a-(1-methylcyclopropylsulfonylcarbamoyl)-5,16-dioxo-1,2,3,5,6,7,8,9,10,11,13a,14,14a,15,16,16a-hexadecahydrocyclopropa[e]pyrrolo[1,2-a][1,4]diazacyclopentadecin-6-ylcarbamate] | < 5.46 nM | < 5.46 nM | 
CCOc1cnc(O[C@@H]2C[C@H]3C(=O)N[C@]4(C(=O)NS(=O)(=O)C5CC5)C[C@H]4/C=C\CC[C@@H](C)C[C@@H](C)[C@H](NC(=O)OC(C)(C)C(F)(F)F)C(=O)N3C2)c2cccc(Cl)c12 [Compound 4025] | < 5.46 nM | < 5.46 nM | 
COc1ccc2c(O[C@@H]3C[C@H]4C(=O)N[C@]5(C(=O)NS(=O)(=O)C6(F)CC6)C[C@H]5/C=C\CC[C@@H](C)C[C@@H](C)[C@H](NC(=O)O[C@H](C)C(F)(F)F)C(=O)N4C3)nccc2c1 [Compound 4020] | < 5.46 nM | < 5.46 nM | 
[2H]C([2H])([2H])Oc1cnc(O[C@@H]2C[C@H]3C(=O)N[C@]4(C(=O)NS(=O)(=O)C5(C)CC5)C[C@H]4/C=C\CC[C@@H](C)C[C@@H](C)[C@H](NC(=O)OC(C)(C)C(C)(F)F)C(=O)N3C2)c2ccccc12 [Compound 5109, 3,3-difluoro-2-methylbutan-2-yl((2R,6S,7R,9R,13aS,14aR,16aS,Z)-7,9-dimethyl-14a-(((1-methylcyclopropyl)sulfonyl)carbamoyl)-5,16-dioxo-2-((4-(trideuteromethoxy)isoquinolin-1-yl)oxy)-1,2,3,5,6,7,8,9,10,11,13a,14,14a,15,16,16a-hexadecahydrocyclopropa[e]pyrrolo[1,2-a][1,4]diazacyclopentadecin-6-yl)carbamate] | < 5.46 nM | < 5.46 nM | 
COc1ccc2c(O[C@@H]3C[C@H]4C(=O)N[C@]5(C(=O)NS(=O)(=O)C6(C)CC6)C[C@H]5/C=C\CC[C@@H](C)C[C@@H](C)[C@H](NC(=O)c5ccncc5F)C(=O)N4C3)ncc(OC)c2c1 [Compound 4142, (2R,6S,7R,9R,13aS,14aR,16aS,Z)-2-(4,6-dimethoxyisoquinolin-1-yloxy)-6-(3-fluoroisonicotinamido)-7,9-dimethyl-N-(1-methylcyclopropylsulfonyl)-5,16-dioxo-1,2,3,5,6,7,8,9,10,11,13a,14,14a,15,16,16a-hexadecahydrocyclopropa[e]pyrrolo[1,2-a][1,4]diazacyclopentadecine-14a-carboxamide] | < 5.46 nM | < 5.46 nM | 
CC[C@@H]1C[C@@H](C)CC/C=C\[C@@H]2C[C@@]2(C(=O)NS(=O)(=O)C2(C)CC2)NC(=O)[C@@H]2C[C@@H](Oc3ncc(N4CCOCC4)c4cc(OC)ccc34)CN2C(=O)[C@H]1NC(=O)OC(C)(C)C(F)(F)F [Compound 4207] |  |  | EC50 ([1]; GETYPE1A, HCV genotype 1a replicon luciferase): < 5.46 nM; EC50 ([2]; GETYPE1B, HCV genotype 1b replicon luciferase): < 5.46 nM
CCCOc1cnc(O[C@@H]2C[C@H]3C(=O)N[C@]4(C(=O)NS(=O)(=O)C5(C)CC5)C[C@H]4/C=C\CC[C@@H](C)C[C@@H](C)[C@H](NC(=O)O[C@@H]4C[C@@H]5C[C@@H]5C4)C(=O)N3C2)c2ccccc12 [Compound 5081, (1R,3r,5S)-bicyclo[3.1.0]hexan-3-yl((2R,6S,7R,9R,13aS,14aR,16aS,Z)-7,9-dimethyl-14a-(((1-methylcyclopropyl)sulfonyl)carbamoyl)-5,16-dioxo-2-((4-propoxyisoquinolin-1-yl)oxy)-1,2,3,5,6,7,8,9,10,11,13a,14,14a,15,16,16a-hexadecahydrocyclopropa[e]pyrrolo[1,2-a][1,4]diazacyclopentadecin-6-yl)carbamate] | 4.82 to 103 nM | < 5.46 nM | 
COc1ccc2c(O[C@@H]3C[C@H]4C(=O)N[C@]5(C(=O)NS(=O)(=O)C6(C)CC6)C[C@H]5/C=C\CC[C@H](C)C[C@@H](C)[C@H](NC(=O)O[C@@H]5C[C@@H]6C[C@@H]6C5)C(=O)N4C3)nc(-c3ccc(OC(C)C)c(F)c3)cc2c1 [Compound 3071, (1R,3r,5S)-bicyclo[3.1.0]hexan-3-yl((2R,6S,7R,9S,13aS,14aR,16aS,Z)-2-((3-(3-fluoro-4-isopropoxyphenyl)-6-methoxyisoquinolin-1-yl)oxy)-7,9-dimethyl-14a-(((1-methylcyclopropyl)sulfonyl)carbamoyl)-5,16-dioxo-1,2,3,5,6,7,8,9,10,11,13a,14,14a,15,16,16a-hexadecahydrocyclopropa[e]pyrrolo[1,2-a][1,4]diazacyclopentadecin-6-yl)carbamate] |  |  | EC50 [1, 5]: 4.82 to 103 nM; EC50 [2, 6]: < 5.46 nM
COc1cc2ccccc2c(O[C@@H]2C[C@H]3C(=O)N[C@]4(C(=O)NS(=O)(=O)C5CC5)C[C@H]4/C=C\CC[C@@H](C)C[C@@H](C)[C@H](NC(=O)OC(C)(C)C)C(=O)N3C2)n1 [Compound 6011, tert-butyl ((2R,6S,7R,9R,13aS,14aR,16aS,Z)-14a-((cyclopropylsulfonyl)carbamoyl)-2-((3-methoxyisoquinolin-1-yl)oxy)-7,9-dimethyl-5,16-dioxo-1,2,3,5,6,7,8,9,10,11,13a,14,14a,15,16,16a-hexadecahydrocyclopropa[e]pyrrolo[1,2-a][1,4]diazacyclopentadecin-6-yl)carbamate] | < 5.46 nM | < 5.46 nM | 
COc1ccc2c(O[C@@H]3C[C@H]4C(=O)N[C@]5(C(=O)NS(=O)(=O)C6CC6)C[C@H]5/C=C\CC[C@@H](C)C[C@@H](C)[C@H](NC(=O)O[C@H](C)C(F)(F)F)C(=O)N4C3)nc(N(C)C)cc2c1 [Compound 3134, (R)-1,1,1-trifluoropropan-2-yl ((2R,6S,7R,9R,13aS,14aR,16aS,Z)-14a-((cyclopropylsulfonyl)carbamoyl)-2-((3-(dimethylamino)-6-methoxyisoquinolin-1-yl)oxy)-7,9-dimethyl-5,16-dioxo-1,2,3,5,6,7,8,9,10,11,13a,14,14a,15,16,16a-hexadecahydrocyclopropa[e]pyrrolo[1,2-a][1,4]diazacyclopentadecin-6-yl)carbamate] |  |  | EC50 [1, 5]: < 5.46 nM; EC50 [2, 6]: < 5.46 nM
COc1cc(F)cc2c(O[C@@H]3C[C@H]4C(=O)N[C@]5(C(=O)NS(=O)(=O)C6CC6)C[C@H]5/C=C\CC[C@H](C)C[C@@H](C)[C@H](NC(=O)OCC5(C)CC5)C(=O)N4C3)nccc12 [Compound 3171, (1-methylcyclopropyl)methyl ((2R,6S,7R,9S,13aS,14aR,16aS,Z)-14a-((cyclopropylsulfonyl)carbamoyl)-2-((7-fluoro-5-methoxyisoquinolin-1-yl)oxy)-7,9-dimethyl-5,16-dioxo-1,2,3,5,6,7,8,9,10,11,13a,14,14a,15,16,16a-hexadecahydrocyclopropa[e]pyrrolo[1,2-a][1,4]diazacyclopentadecin-6-yl)carbamate] |  |  | EC50 [1, 5]: 4.82 to 103 nM; EC50 [2, 6]: < 5.46 nM
